# Results taken from patent publication US20250345292A1, “COMBINATION OF ALBUTEROL AND BUDESONIDE FOR THE TREATMENT OF ASTHMA” (priority 2022, published 2025).
# How the values were obtained:
# [1] = tested on: patients with mild-to-moderate asthma; experiment: Phase 3 clinical trial, albuterol-budesonide combination vs. mono-components, four times daily for 12 weeks; format: in vivo, human; conditions: for Change from baseline in FEV1 AUC0-6 over 12 weeks, LSM / Change from baseline in trough FEV1 over 12 weeks, LSM: four times daily
# Procedure: A Phase 3 clinical study evaluated contributions of the mono-components albuterol and budesonide to albuterol/budesonide combination efficacy in patients with mild-to-moderate asthma ≥4 years. Patients≥12 years were randomized 1:1:1:1:1 to four-times-daily albuterol/budesonide 180/160 or 180/80 μg, albuterol 180 μg, budesonide 160 μg or placebo for 12 weeks; patients 4-11 years were not included in this analysis set.
# In the study, 1001 patients with mild-to-moderate asthma were randomized 1:1:1:1:1 to ABD 180/160 μg or 180/80 μg, albuterol (A) 180 μg, budesonide (B) 160 μg, or placebo, all four times daily (QID), for 12 weeks. […] Secondary endpoints included time to onset, as measured by 15% improvement in FEV1 within 30 minutes on Day 1, and duration of effect, and Asthma Control Questionnaire-7 (ACQ-7) responder (≥0.5-point reduction from baseline) analysis at Week 12.
# [2] = tested on: patients with uncontrolled moderate-to-severe asthma; conditions: human, in vivo, 180 μg
# Procedure: (§1) Safety endpoints (adverse events [AEs] and serious adverse events [SAEs]) were assessed from date of informed consent/assent through the safety follow-up.
# (§2) All randomized patients who received any amount of study drug, classified by the study medication they were randomized to, were included in the efficacy analyses comparing albuterol-budesonide 180/80-μg with albuterol. […] All patients receiving any amount of randomized study medication, and classified by the study medication they actually received, were included for all safety analyses.
# [3] = tested on: patients with uncontrolled moderate-to-severe asthma; experiment: Phase 3 clinical trial, albuterol-budesonide FDC vs. albuterol alone: safety endpoints (adverse events)
# Procedure: as §1, §2
# [4] = tested on: patients with uncontrolled moderate-to-severe asthma; experiment: Phase 3 clinical trial, as-needed albuterol-budesonide fixed dose combination vs. albuterol alone: efficacy and study medication use; format: in vivo, human; conditions: for % of patients with a severe exacerbation / number of patients with a severe exacerbation: as-needed use
# [5] = vs placebo, full analysis set ≥12 years
# [6] = AE in ≥2% of patients in any group
# [7] = treatment-related, investigator-assessed AE
# [8] = comparison 180/80-μg versus albuterol, all patients
# [9] = comparison 180/160-μg versus albuterol, excludes children
# [10] = comparison albuterol-budesonide 180/80-μg versus albuterol, all patients
# [11] = comparison albuterol-budesonide 180/160-μg versus albuterol, excludes children (albuterol n=1,014)
structure (smiles),measurement,setting,value
"CCCC1O[C@@H]2C[C@H]3[C@@H]4CCC5=CC(=O)C=C[C@]5(C)[C@H]4[C@@H](O)C[C@]3(C)[C@]2(C(=O)CO)O1 (mixture of isomers) [budesonide 160 μg, (RS)-11β,21-dihydroxy-16α,17α-(butylidenebis(oxy)) pregna-1,4-diene-3,20-dione]","Change from baseline in FEV1 AUC0-6 over 12 weeks, LSM",[1]; full analysis set ≥12 years,178.0 mL
same,"Change from baseline in trough FEV1 over 12 weeks, LSM",[1]; full analysis set ≥12 years,108.9 vs mL
same,"Change from baseline in trough FEV1 over 12 weeks, difference in LSM",[1]; [5],73.3 mL
"CC(C)(C)NCC(O)c1ccc(O)c(CO)c1 (stereo not shown) [albuterol 180-μg, 4-(2-(tert-butylamino)-1-hydroxyethyl)-2-(hydroxymethyl) phenol]","frequency of SAEs, including deaths",[2],4.5%
same,"Asthma, %",[3]; [6],3.3%
same,"Back pain, %",[3]; [6],1.9%
same,"Bronchitis, %",[3]; [6],2.6%
same,"COVID-19, %",[3]; [6],4.4%
same,"Headache, %",[3]; [6],4.7%
same,"Hypertension, %",[3]; [6],2.5%
same,"Influenza, %",[3]; [6],1.3%
same,"Nasopharyngitis, %",[3]; [6],5.1%
same,"Sinusitis, %",[3]; [6],2.3%
same,"Upper respiratory tract infection, %",[3]; [6],2.5%
same,"Patients with any AE, %",[3]; Table 1,46.4%
same,frequency of AEs leading to discontinuation of treatment,"[3]; human, in vivo",0.9%
same,frequency of inhaled glucocorticoid-associated adverse events,"[3]; human, in vivo",1.3%
same,deaths (number),[3]; no deaths considered treatment-related,1
same,frequency of any AE,[3]; randomized treatment groups,46.4%
same,dysphonia,[3]; [7],0.4%
same,oral candidiasis,[3]; [7],0.5%
same,oropharyngeal candidiasis,[3]; [7],0.1%
same,Annualized severe exacerbation rate,[4]; [8],0.61
same,"Annualized total systemic glucocorticoid exposure (prednisone equivalents), median",[4]; [8],0.0 mg/year
same,Annualized severe exacerbation rate,[4]; [9],0.59
same,"Annualized total systemic glucocorticoid exposure (prednisone equivalents), median",[4]; [9],0.0 mg/year
same,% of patients with a severe exacerbation,[4]; [10],26.1%
same,number of patients with a severe exacerbation,[4]; [10],276
same,% of patients with a severe exacerbation,[4]; [11],26.2%
same,number of patients with a severe exacerbation,[4]; [11],266
same,severe exacerbations requiring ED or urgent care visits (number),[4]; per treatment arm,66
same,severe exacerbations requiring hospitalization (number),[4]; per treatment arm,17
same,responders (onset of effect),"[1]; Day 1, 15% improvement in FEV1 within 30 minutes",42.9%
same,Median time to onset,"[1]; Day 1, 15% improvement in FEV1 within 30 minutes, responders",9.5 min
same,Median duration of effect,"[1]; Day 1, responders",168.2 min
same,percentages of ACQ-7 responders,"[1]; Week 12, ≥0.5-point reduction from baseline",47.2%
same,bronchodilation with repeated use over 1-4 weeks,[1]; compared with placebo,no difference
same,"Change from baseline in FEV1 AUC0-6 over 12 weeks, LSM",[1]; full analysis set ≥12 years,157.2 vs mL
same,"Change from baseline in trough FEV1 over 12 weeks, LSM",[1]; full analysis set ≥12 years,2.7 mL
same,"Change from baseline in FEV1 AUC0-6 over 12 weeks, difference in LSM",[1]; [5],60.5 mL
